Key:
[1] = tested on: corn; test: Soil treatment test for upland field; type: in vivo; parameters: key: 0 = normal development, 5 = all killed; conditions: 500 g/ha, 3 weeks, glass house 25° C.
In short: (§1)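 Scored on a 0–5 scale (0 normal growth, 5 all killed) relative to untreated plots after 3 weeks in a glasshouse averaging 25° C. Compound applied as surfactant-containing (0.05%) aqueous dilution of wettable powder onto the surface of sown Ube alluvial soil at 500 g/ha.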

[2] = tested on: solgum; test: Soil treatment test for upland field; type: in vivo; parameters: key: 0 = normal development, 5 = all killed; conditions: 500 g/ha, 3 weeks, glass house 25° C.
In short: as §1

[3] = tested on: sugar beat; test: Soil treatment test for upland field; type: in vivo; parameters: key: 0 = normal development, 5 = all killed; conditions: 500 g/ha, 3 weeks, glass house 25° C.
In short: as §1

[4] = tested on: wheat; test: Soil treatment test for upland field; type: in vivo; parameters: key: 0 = normal development, 5 = all killed; conditions: 500 g/ha, 3 weeks, glass house 25° C.
In short: as §1

[5] = tested on: cotton; test: Soil treatment test for upland field; type: in vivo; conditions: 500 g/ha, 3 weeks, glass house 25° C.
Protocol: The herbicidal effects are evaluated according to the following 6 ranks as compared with non-treated district. (0: normal development, 1: Less damaged, 2: Slightly damaged, 3: Moderately damaged, 4: Severely damaged, 5: All killed). Incidentally, “-” in the column means not investigated.
Wagner pots, each having an area of 1/5000 are, were packed with Ube soil (alluvial soil), and then each seed of corn, soybean, cotton, wheat, solgum, sugar beat, Large crabgrass, barnyard grass, green foxtail, blackgrass, annual bluegrass, common lambsquarters, livid amaranth, velvetleaf, morning glory, common Cocklebur (Xanthium strumarium) and sicklepod (Cassia obtusifolia) were planted and covered with soil.
Each wettable powder of the desired compounds (I) shown in Tables 1 to 21, 24, 25, 28 and 29 prepared in accordance with Example 2 was diluted with water containing a surfactant (0.05%) and uniformly sprayed on the surface of each soil so that an effective concentration of the compound (I) in each herbicide became 500 g/ha.
These plants were controlled in a glass house at an average temperature of 25° C. for 3 weeks, and then herbicidal effects thereof were investigated.
The herbicidal effects were evaluated according to the evaluation method described in the above (1).

[6] = tested on: Large crabgrass; test: Soil treatment test for upland field; type: in vivo, Digitaria adscendens; parameters: key: 0 = normal development, 5 = all killed; conditions: 500 g/ha, 3 weeks, glass house 25° C.
In short: as §1

[7] = tested on: barnyard grass; test: Soil treatment test for upland field; type: in vivo, Eschinochloa crusgalli; parameters: key: 0 = normal development, 5 = all killed; conditions: 500 g/ha, 3 weeks, glass house 25° C.
In short: as §1

[8] = tested on: green foxtail; test: Soil treatment test for upland field; type: in vivo, Setaria viridis; parameters: key: 0 = normal development, 5 = all killed; conditions: 500 g/ha, 3 weeks, glass house 25° C.
In short: as §1

[9] = tested on: blackgrass; test: Soil treatment test for upland field; type: in vivo, Alopecurus aegualis; parameters: key: 0 = normal development, 5 = all killed; conditions: 500 g/ha, 3 weeks, glass house 25° C.
In short: as §1

[10] = tested on: annual bluegrass; test: Soil treatment test for upland field; type: in vivo, Poa annua; parameters: key: 0 = normal development, 5 = all killed; conditions: 500 g/ha, 3 weeks, glass house 25° C.
In short: as §1

[11] = tested on: common lambsquarters; test: Soil treatment test for upland field; type: in vivo, Chenopodium album; parameters: key: 0 = normal development, 5 = all killed; conditions: 500 g/ha, 3 weeks, glass house 25° C.
In short: as §1

[12] = tested on: livid amaranth; test: Soil treatment test for upland field; type: in vivo, Amaranthus lividus; parameters: key: 0 = normal development, 5 = all killed; conditions: 500 g/ha, 3 weeks, glass house 25° C.
In short: as §1

[13] = tested on: velvetleaf; test: Soil treatment test for upland field; type: in vivo, Abutilon theophrasti; parameters: key: 0 = normal development, 5 = all killed; conditions: 500 g/ha, 3 weeks, glass house 25° C.
In short: as §1

[14] = tested on: morning glory; test: Soil treatment test for upland field; type: in vivo, Ipomoea spps.; parameters: key: 0 = normal development, 5 = all killed; conditions: 500 g/ha, 3 weeks, glass house 25° C.
In short: as §1

[15] = tested on: corn; test: Foliar spread test for upland field; type: in vivo; parameters: key: 0 = normal development, 5 = all killed (6 ranks vs. untreated); conditions: foliar spray, 500 ppm, 3 weeks, glass house 25° C.
In short: (§2)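 Plants grown about 2 weeks at 25 °C in volcanic ash soil were sprayed with wettable powder diluted to 500 ppm in water with 0.5% surfactant. After 3 weeks at 25 °C, damage was scored 0 (normal) to 5 (all killed) against untreated plants.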

[16] = tested on: cotton; test: Foliar spread test for upland field; type: in vivo; parameters: key: 0 = normal development, 5 = all killed (6 ranks vs. untreated); conditions: foliar spray, 500 ppm, 3 weeks, glass house 25° C.
In short: as §2

[17] = tested on: solgum; test: Foliar spread test for upland field; type: in vivo; parameters: key: 0 = normal development, 5 = all killed (6 ranks vs. untreated); conditions: foliar spray, 500 ppm, 3 weeks, glass house 25° C.
In short: as §2

[18] = tested on: soybean; test: Foliar spread test for upland field; type: in vivo; parameters: key: 0 = normal development, 5 = all killed (6 ranks vs. untreated); conditions: foliar spray, 500 ppm, 3 weeks, glass house 25° C.
In short: as §2

[19] = tested on: sugar beat; test: Foliar spread test for upland field; type: in vivo; parameters: key: 0 = normal development, 5 = all killed (6 ranks vs. untreated); conditions: foliar spray, 500 ppm, 3 weeks, glass house 25° C.
In short: as §2

[20] = tested on: wheat; test: Foliar spread test for upland field; type: in vivo; parameters: key: 0 = normal development, 5 = all killed (6 ranks vs. untreated); conditions: foliar spray, 500 ppm, 3 weeks, glass house 25° C.
In short: as §2

[21] = tested on: Large crabgrass; test: Foliar spread test for upland field; type: in vivo, Digitaria adscendens; parameters: key: 0 = normal development, 5 = all killed (6 ranks vs. untreated); conditions: foliar spray, 500 ppm, 3 weeks, glass house 25° C.
In short: as §2

[22] = tested on: barnyardgrjass; test: Foliar spread test for upland field; type: in vivo, Eschinochloa crusgalli; parameters: key: 0 = normal development, 5 = all killed (6 ranks vs. untreated); conditions: foliar spray, 500 ppm, 3 weeks, glass house 25° C.
In short: as §2

[23] = tested on: green foxtail; test: Foliar spread test for upland field; type: in vivo, Setaria viridis; parameters: key: 0 = normal development, 5 = all killed (6 ranks vs. untreated); conditions: foliar spray, 500 ppm, 3 weeks, glass house 25° C.
In short: as §2

[24] = tested on: blackgrass; test: Foliar spread test for upland field; type: in vivo, Alopecurus aegualis; parameters: key: 0 = normal development, 5 = all killed (6 ranks vs. untreated); conditions: foliar spray, 500 ppm, 3 weeks, glass house 25° C.
In short: as §2

[25] = tested on: annual bluegrass; test: Foliar spread test for upland field; type: in vivo, Poa annua; parameters: key: 0 = normal development, 5 = all killed (6 ranks vs. untreated); conditions: foliar spray, 500 ppm, 3 weeks, glass house 25° C.
In short: as §2

[26] = tested on: common lambsquarters; test: Foliar spread test for upland field; type: in vivo, Chenopodium album; parameters: key: 0 = normal development, 5 = all killed (6 ranks vs. untreated); conditions: foliar spray, 500 ppm, 3 weeks, glass house 25° C.
In short: as §2

[27] = tested on: livid amaranth; test: Foliar spread test for upland field; type: in vivo, Amaranthus lividus; parameters: key: 0 = normal development, 5 = all killed (6 ranks vs. untreated); conditions: foliar spray, 500 ppm, 3 weeks, glass house 25° C.
In short: as §2

[28] = tested on: velvetleaf; test: Foliar spread test for upland field; type: in vivo, Abutilon theophrasti; parameters: key: 0 = normal development, 5 = all killed (6 ranks vs. untreated); conditions: foliar spray, 500 ppm, 3 weeks, glass house 25° C.
In short: as §2

[29] = tested on: morning glory; test: Foliar spread test for upland field; type: in vivo, Ipomoea spps.; parameters: key: 0 = normal development, 5 = all killed (6 ranks vs. untreated); conditions: foliar spray, 500 ppm, 3 weeks, glass house 25° C.
In short: as §2

[30] = tested on: barnyard grass; test: Herbicidal test for paddy field; type: in vivo, Eschinochloa crusgalli; conditions: 500 g/ha, dropwise addition to paddy water at 1.5 leaf stage of barnyard grass; glass house 25° C., 3 weeks; rank 0-5 vs non-treated district
In short: (§3)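 Wettable-powder formulations in water with 0.05% surfactant were dripped onto flooded (3 cm) Ube alluvial-soil pots at 500 g/ha, applied at barnyard grass 1.5-leaf stage. Plants were kept in a glasshouse at 25° C. for 3 weeks. Damage was scored 0 (normal) to 5 (all killed) versus untreated plants.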

[31] = tested on: bulrush; test: Herbicidal test for paddy field; type: in vivo, Scrips juncoides; conditions: 500 g/ha, dropwise addition to paddy water at 1.5 leaf stage of barnyard grass; glass house 25° C., 3 weeks; rank 0-5 vs non-treated district
In short: as §3

[32] = tested on: Cyperus serotinus Rottb.; test: Herbicidal test for paddy field; type: in vivo; conditions: 500 g/ha, dropwise addition to paddy water at 1.5 leaf stage of barnyard grass; glass house 25° C., 3 weeks; rank 0-5 vs non-treated district
In short: as §3

[33] = tested on: soybean; test: Soil treatment test for upland field; type: in vivo; parameters: key: 0 = normal development, 5 = all killed; conditions: 500 g/ha, 3 weeks, glass house 25° C.
In short: as §1

| SMILES | Effects Corn [1] | Effects Solgum [2] | Effects Sugar beat [3] | Effects Wheat [4] | Effects Sotton [5] | Effects Large crabgrass [6] | Effects Barnyardgrass [7] | Effects Green foxtail [8] | Effects Blackgrass [9] | Effects Annual bluegrass [10] | Effects Common lambsquarters [11] | Effects Livid amaranth [12] | Effects Velvetleaf [13] | Effects Morning glory [14] | Effects Corn [15] | Effects Sotton [16] | Effects Solgum [17] | Effects Soybean [18] | Effects Sugar beat [19] | Effects Wheat [20] | other results |
| --- | --- | --- | --- | --- | --- | --- | --- | --- | --- | --- | --- | --- | --- | --- | --- | --- | --- | --- | --- | --- | --- |
| CCC(F)(Cc1ccc(F)c(C(F)(F)F)c1)c1nc2cc(Cl)ccc2o1 (stereo not drawn) [I-d-13, 1-(5-chlorobenzoxazol-2-yl)-1-(4-fluoro-3-trifluoromethylbenzyl)propyl fluoride] | 0 | 0 | 5 | 0 | 0 | 5 | 2 | 5 | 4 | 5 | 5 | 5 | 5 | 1 | 2 | 5 | 1 | 5 | 5 | 1 | Effects Large crabgrass [21]: 2; Effects Barnyardgrass [22]: 1; Effects Green foxtail [23]: 2; Effects Blackgrass [24]: 1; Effects Annual bluegrass [25]: 1; Effects Common lambsquarters [26]: 5; Effects Livid amaranth [27]: 5; Effects Velvetleaf [28]: 4; Effects Morning glory [29]: 5 |
| CC/C(=C\c1ccc(F)c(C(F)(F)F)c1)c1nc2cc(Cl)ccc2o1 [I-c-54, (E)-2-(5-chlorobenzoxazol-2-yl)-1-(4-fluoro-3-trifluoromethylphenyl)butene] | 1 | 2 | 5 | 1 | 3 | 5 | 5 | 5 | 5 | 5 | 5 | 5 | 5 | 5 | 3 | 3 | 3 | 4 | 5 | 2 | Effects Barnyardgrass [30]: 5; Effects Bulrush [31]: 3; Effects Cyperus serotinus Rottb. [32]: 3; Effects Soybean [33]: 5; Effects Large crabgrass [21]: 4; Effects Barnyardgrass [22]: 2; Effects Green foxtail [23]: 4; Effects Blackgrass [24]: 4; Effects Annual bluegrass [25]: 4; Effects Common lambsquarters [26]: 5; Effects Livid amaranth [27]: 5; Effects Velvetleaf [28]: 3; Effects Morning glory [29]: 3 |
| CCC(O)(Cc1ccc(F)c(C(F)(F)F)c1)c1nc2cc(Cl)ccc2o1 (stereo not drawn) [I-d-11, 1-(5-chlorobenzoxazol-2-yl)-1-(4-fluoro-3-trifluoromethylbenzyl)propanol] |  |  |  |  |  |  |  |  |  |  |  |  |  |  |  |  |  |  |  |  | melting point: 90 to 93 °C |

From US7402548B2, “Benzoxazole compounds, process for producing the same and herbicides” (Kyoyu Agri Co., Ltd., priority 2000, dated 2008)
